Drawing on patent US10316017B2, “COT modulators and methods of use thereof” (Gilead Sciences, Inc., priority 2015, dated 2019), this text covers EC50 and IC50 for 20 compounds.

Read-outs that look alike come from different tables or passages of the source.

For assay [1], the system named is TNFα production in LPS-stimulated human monocytes. The assay can be described thus: Cot Monocyte TNFα Cell Based Assay. Particulars: read-out: EC50 TNF. In outline:
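TNFα release quantified by two-antibody TR-FRET, normalised to unstimulated (0%) and LPS-stimulated (100%) wells. Cells got a 1 h compound exposure at 37° C in 0.5% DMSO before 4 h challenge with 50 pg/ml LPS, at 5,000 cells/well.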

The target in assay [2] is T1, human Cot catalytic domain (30-397 amino acids) (Homo sapiens, UniProt P41279).
T1 construct: Purified recombinant human Cot catalytic domain (30-397 amino acids) was purchased from Cama Biosciences; purchased Cama Biosciences (so in the source)
Nature of the assay: High Throughput Cot Biochemical Assay (KinEASE TR-FRET). The note with it: read-out: IC50 HTRF. In outline: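 TR-FRET (KinEASE) read-out: Eu-labelled phospho-specific antibody binds XL665-tagged STK3 peptide (1 μM) phosphorylated by 5 nM human Cot kinase domain (residues 30-397). Reaction at 400 μM ATP, pH 7.0 MOPS buffer with 10 mM MgOAc, 1 mM DTT and 0.1% DMSO.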
For orientation: TR-FRET usually uses a lanthanide donor and a delayed reading to cut background.

The mark [3] stands for this setting: Cot KinEASE TR-FRET, 400 μM ATP.
[4] abbreviates: Homo sapiens, Monocyte, TNFα in LPS-stimulated human monocytes.
The mark [5] stands for this setting: Cot biochemical HTRF (KinEASE TR-FRET) assay.
Setting [6] is: Cot KinEASE TR-FRET (HTRF) biochemical assay, 400 μM ATP.
[7] abbreviates: Homo sapiens, Monocyte, LPS-stimulated human monocytes, TNFα TR-FRET.

T1 sequence (P41279 30-397): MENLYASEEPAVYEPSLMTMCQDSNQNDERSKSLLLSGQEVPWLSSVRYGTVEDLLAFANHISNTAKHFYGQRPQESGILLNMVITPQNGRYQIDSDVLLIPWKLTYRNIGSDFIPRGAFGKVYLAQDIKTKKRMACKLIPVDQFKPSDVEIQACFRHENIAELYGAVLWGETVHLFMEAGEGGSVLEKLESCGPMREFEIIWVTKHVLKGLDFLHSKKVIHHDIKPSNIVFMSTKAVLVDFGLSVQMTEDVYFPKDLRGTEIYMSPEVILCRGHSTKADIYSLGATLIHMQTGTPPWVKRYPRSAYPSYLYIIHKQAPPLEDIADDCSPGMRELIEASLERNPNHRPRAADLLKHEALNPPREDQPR

A word on the EC50: it is the concentration that produces a half-maximal response. Broadly, the IC50 is the concentration that gives 50% inhibition. `Cc1c(C#N)cccc1[C@H](Nc1cc(C#N)c2ncc(C#N)c(NCC(C)(C)C(F)(F)F)c2c1)c1cn(C2(C(F)F)CC2)nn1` [Example 1126, (S)-6-(((3-cyano-2-methylphenyl)(1-(1-(difluoromethyl)cyclopropyl)-1H-1,2,3-triazol-4-yl)methyl)amino)-4-((3,3,3-trifluoro-2,2-dimethylpropyl)amino)quinoline-3,8-dicarbonitrile]: the concentration giving a half-maximal response (EC50) in assay [1] (LPS-stimulated human monocytes, TNFα TR-FRET) stood at 66 nM. Moreover, the concentration for half-maximal inhibition (IC50) in assay [2] (setting [3]) came out at 5 nM.

On to `CCN(C)C(=O)c1cccc([C@H](Nc2cc(Cl)c3ncc(C#N)c(Nc4ccc(F)c(Cl)c4)c3c2)c2cn(C3CCN(C(C)(C)C)CC3)nn2)c1` [Example 674, (S)-3-((1-(1-(tert-butyl)piperidin-4-yl)-1H-1,2,3-triazol-4-yl)((8-chloro-4-((3-chloro-4-fluorophenyl)amino)-3-cyanoquinolin-6-yl)amino)methyl)-N-ethyl-N-methylbenzamide], for which, in assay [1] (setting [4]), the EC50 worked out at 318 nM. The IC50 in assay [2] (setting [5]) was found to be 3 nM.

`CC(C)(CNc1c(C#N)cnc2c(Cl)cc(N[C@@H](c3ccc(F)cc3)c3cn(C4CC4)nn3)cc12)c1ccccc1` [Example 350, (S)-8-chloro-6-(((1-cyclopropyl-1H-1,2,3-triazol-4-yl)(4-fluorophenyl)methyl)amino)-4-((2-methyl-2-phenylpropyl)amino) quinoline-3-carbonitrile]: the EC50 in assay [1] (setting [4]) is 387 nM. In addition, the concentration for half-maximal inhibition (IC50) in assay [2] (setting [6]) was 9 nM.

Take `CC1(CNc2c(C#N)cnc3c(Cl)cc(N[C@@H](c4ccc(F)cc4)c4c[nH]nn4)cc23)CCOCC1` [Example 398, (S)-8-chloro-6-(((4-fluorophenyl)(1H-1,2,3-triazol-4-yl)methyl)amino)-4-(((4-methyltetrahydro-2H-pyran-4-yl)methyl)amino)quinoline-3-carbonitrile]: the EC50 in assay [1] (setting [4]) is 1050 nM. For the same compound, the IC50 in assay [2] (setting [6]) turned out to be 28 nM.

As to `[2H][C@](Nc1cc(Cl)c2ncc(C#N)c(NC3CCCCC3C)c2c1)(c1ccc(F)cc1)c1cn(C2CC2)nn1` (stereo partly drawn) [Example 321, 8-chloro-6-(((S)-(1-cyclopropyl-1H-1,2,3-triazol-4-yl)(4-fluorophenyl)methyl-d)amino)-4-((2-methylcyclohexyl)amino) quinoline-3-carbonitrile], the EC50 in assay [1] (setting [4]) worked out at 391 nM. For the same compound, the IC50 in assay [2] (setting [6]) is 159 nM.

On to `N#Cc1cnc2c(Cl)cc(N[C@@H](c3ccccc3)c3cn(CCN4CCCC4)nn3)cc2c1Nc1ccc(F)c(Cl)c1` [Example 546, (S)-8-chloro-4-((3-chloro-4-fluorophenyl)amino)-6-((phenyl (1-(2-(pyrrolidin-1-yl)ethyl)-1H-1,2,3-triazol-4-yl)methyl)amino)quinoline-3-carbonitrile], for which, in assay [1] (setting [4]), the EC50 was found to be 200 nM. In addition, in assay [2] (setting [5]), the IC50 came out at 8 nM.

Turning to `N#Cc1cnc2c(Cl)cc(N[C@H](c3c[nH]nn3)c3ccc(F)cc3Cl)cc2c1Nc1cnc(F)c(F)c1` [Example 422, (S)-8-chloro-6-(((2-chloro-4-fluorophenyl)(1H-1,2,3-triazol-4-yl)methyl)amino)-4-((5,6-difluoropyridin-3-yl)amino)quinoline-3-carbonitrile], the EC50 in assay [1] (setting [4]) was 1350 nM. In addition, the half-inhibitory concentration (IC50) in assay [2] (setting [5]) turned out to be 48 nM.

Regarding `[2H][C@](Nc1cc(Cl)c2ncc(C#N)c(NCC(C)(C)C)c2c1)(c1cn(C2CC2(F)F)nn1)c1ccccc1Cl` (stereo partly shown) [Example 99, 8-chloro-6-(((2-chlorophenyl) (1-(2,2-difluorocyclopropyl)-1H-1,2,3-triazol-4-yl)methyl-d)amino)-4-(neopentylamino) quinoline-3-carbonitrile], in assay [1] (setting [4]), the half-maximal effective concentration (EC50) amounted to 454 nM. Further, the IC50 in assay [2] (setting [6]) turned out to be 19 nM.

With `CC(C)(C)CNc1c(C#N)cnc2c(Cl)cc(N[C@@H](c3ccc(F)cc3)c3cn(-c4cccnc4)nn3)cc12` [Example 394, (S)-8-chloro-6-(((4-fluorophenyl)(1-(pyridin-3-yl)-1H-1,2,3-triazol-4-yl)methyl)amino)-4-(neopentylamino)quinoline-3-carbonitrile], the half-maximal effective concentration (EC50) in assay [1] (setting [4]) amounted to 160 nM. Further, the 50% inhibitory concentration (IC50) in assay [2] (setting [6]) was 36 nM.

As to `C[C@@H](Nc1c(C#N)cnc2c(Cl)cc(N[C@@H](c3cccc(C(=O)N(C)C)c3)c3cn(C4CCN(C(C)(C)C)CC4)nn3)cc12)c1ccccc1` [Example 571, 3-((S)-(1-(1-(tert-butyl)piperidin-4-yl)-1H-1,2,3-triazol-4-yl)((8-chloro-3-cyano-4-(((R)-1-phenylethyl)amino)quinolin-6-yl)amino)methyl)-N,N-dimethylbenzamide], the EC50 in assay [1] (setting [4]) was 382 nM. The IC50 in assay [2] (setting [5]) worked out at 6 nM.

As to `N#Cc1cnc2c(Cl)cc(N[C@@H](c3cccc(N4CCCC4=O)c3)c3c[nH]nn3)cc2c1Nc1ccc(Cl)c(Cl)c1F` [Example 531, (S)-8-chloro-4-((3,4-dichloro-2-fluorophenyl)amino)-6-(((3-(2-oxopyrrolidin-1-yl)phenyl)(1H-1,2,3-triazol-4-yl)methyl)amino)quinoline-3-carbonitrile], the half-maximal effective concentration (EC50) in assay [1] (setting [4]) amounted to 491 nM. For the same compound, in assay [2] (setting [5]), the IC50 was 16 nM.

Take `N#Cc1cnc2c(Cl)cc(N[C@@H](c3ccc(F)cc3)c3cn(-c4ccccc4C(F)(F)F)nn3)cc2c1Nc1cnc(F)c(F)c1` [Example 336, (S)-8-chloro-4-((5,6-difluoropyridin-3-yl)amino)-6-(((4-fluorophenyl)(1-(2-(trifluoromethyl)phenyl)-1H-1,2,3-triazol-4-yl)methyl)amino)quinoline-3-carbonitrile]: in assay [1] (setting [4]), the EC50 came out at 619 nM. Besides, in assay [2] (setting [6]), the IC50 amounted to 71 nM.

With `[2H][C@](Nc1cc(Cl)c2ncc(C#N)c(N[C@@H](CC#N)c3ccccc3)c2c1)(c1cccc(C#N)c1)c1cn(C2CC2)nn1` [Example 295, 8-chloro-4-(((S)-2-cyano-1-phenylethyl)amino)-6-(((S)-(3-cyanophenyl)(1-cyclopropyl-1H-1,2,3-triazol-4-yl)methyl-d)amino)quinoline-3-carbonitrile], the concentration giving a half-maximal response (EC50) in assay [1] (setting [4]) was greater than 10000 nM. Besides, in assay [2] (setting [6]), the IC50 turned out to be 389 nM.

Consider `CC(C)(C)N1CCC(n2cc([C@@H](Nc3cc(Cl)c4ncc(C#N)c(Nc5ccc(F)c(Cl)c5)c4c3)c3cccc(C(=O)N4CCCC4)c3)nn2)CC1` [Example 691, (S)-6-(((1-(1-(tert-butyl)piperidin-4-yl)-1H-1,2,3-triazol-4-yl)(3-(pyrrolidine-1-carbonyl)phenyl)methyl)amino)-8-chloro-4-((3-chloro-4-fluorophenyl)amino)quinoline-3-carbonitrile], for which the EC50 in assay [1] (setting [4]) worked out at 90 nM. Besides, the half-inhibitory concentration (IC50) in assay [2] (setting [5]) is 2 nM.

Consider `Cc1c(C#N)cccc1[C@H](Nc1cc(C#N)c2ncc(C#N)c(NCC(C)(C)C)c2c1)c1cn(C2(C(F)F)CC2)nn1` [Example 1013, (S)-6-(((3-cyano-2-methylphenyl)(1-(1-(difluoromethyl)cyclopropyl)-1H-1,2,3-triazol-4-yl)methyl)amino)-4-(neopentylamino)quinoline-3,8-dicarbonitrile], for which the EC50 in assay [1] (setting [7]) stood at 23 nM. For the same compound, in assay [2] (setting [3]), the half-inhibitory concentration (IC50) came to 2 nM.

Turning to `CC(C)(C)CNc1c(C#N)cnc2c(Cl)cc(N[C@@H](c3ccccc3)c3cn(C(F)(F)C(N)=O)nn3)cc12` [Example 970, (S)-2-(4-(((8-chloro-3-cyano-4-(neopentylamino)quinolin-6-yl)amino)(phenyl)methyl)-1H-1,2,3-triazol-1-yl)-2,2-difluoroacetamide], the concentration for a half-maximal effect (EC50) in assay [1] (setting [7]) turned out to be 202 nM. For the same compound, in assay [2] (setting [3]), the half-inhibitory concentration (IC50) is 8 nM.

Take `[2H][C@](Nc1cc(Cl)c2ncc(C#N)c(NCC(C)(C)COC)c2c1)(c1ccc(F)cc1)c1cn(C2CC2)nn1` [Example 225, (S)-8-chloro-6-(((1-cyclopropyl-1H-1,2,3-triazol-4-yl)(4-fluorophenyl)methyl-d)amino)-4-((3-methoxy-2,2-dimethylpropyl)amino) quinoline-3-carbonitrile]: in assay [1] (setting [4]), the 50% effective concentration (EC50) is 800 nM. In assay [2] (setting [6]), the IC50 came to 38 nM.

Take `[2H][C@](Nc1cc(C2CC2)c2ncc(C#N)c(NCC(C)(C)C)c2c1)(c1ccc(F)cc1)c1cn(C2CC2)nn1` [Example 232, (S)-8-cyclopropyl-6-(((1-cyclopropyl-1H-1,2,3-triazol-4-yl)(4-fluorophenyl)methyl-d)amino)-4-(neopentylamino)quinoline-3-carbonitrile]: the concentration for a half-maximal effect (EC50) in assay [1] (setting [4]) worked out at 2440 nM. The IC50 in assay [2] (setting [6]) was 215 nM.

For the compound `Cc1c(C#N)cccc1[C@H](Nc1cc(Cl)c2ncc(C#N)c(NCC(C)(C)C)c2c1)c1cn(C2(C)CC2)nn1` [Example 1101, (S)-8-chloro-6-(((3-cyano-2-methylphenyl)(1-(1-methylcyclopropyl)-1H-1,2,3-triazol-4-yl)methyl)amino)-4-(neopentylamino)quinoline-3-carbonitrile], in assay [1] (setting [7]), the EC50 was determined as 27 nM. For the same compound, the concentration for half-maximal inhibition (IC50) in assay [2] (setting [3]) is 3 nM.

With `N#Cc1cnc2c(Cl)cc(N[C@@H](c3ccc(Cl)cc3)c3cn(C4CCNCC4)nn3)cc2c1Nc1ccc(F)c(Cl)c1` [Example 859, (S)-8-chloro-4-((3-chloro-4-fluorophenyl)amino)-6-(((4-chlorophenyl)(1-(piperidin-4-yl)-1H-1,2,3-triazol-4-yl)methyl)amino)quinoline-3-carbonitrile], the half-maximal effective concentration (EC50) in assay [1] (setting [4]) is 533 nM. Further, in assay [2] (setting [5]), the IC50 worked out at 12 nM.
